Laboratory results reported in ChEMBL document CHEMBL5223132, “Structure-activity relationships of mixed σ1R/σ2R ligands with antiproliferative and anticancer effects” (Bioorg Med Chem, 2022).

Legend:
[1] = molecular target: T1, Sigma non-opioid intracellular receptor 1 (Homo sapiens, UniProt Q99720); test: Displacement of [H3]DTG from sigma 1 receptor (unknown origin) by competition binding assay
[2] = molecular target: T2, Sigma intracellular receptor 2 (Homo sapiens, UniProt Q5BJF2); test: Displacement of [H3]DTG from sigma 2 receptor (unknown origin) by competition binding assay
[3] = molecular target: T3, Sigma intracellular receptor 2 (Rattus norvegicus, UniProt Q5U3Y7); test: Displacement of [3H]DTG from sigma 2 receptor expressed in rat liver membranes assessed as inhibition constant in presence of (+)-pentazocine by radioligand binding assay; assay type: cell membranes, Membrane
T3 sequence (Q5U3Y7 whole entry): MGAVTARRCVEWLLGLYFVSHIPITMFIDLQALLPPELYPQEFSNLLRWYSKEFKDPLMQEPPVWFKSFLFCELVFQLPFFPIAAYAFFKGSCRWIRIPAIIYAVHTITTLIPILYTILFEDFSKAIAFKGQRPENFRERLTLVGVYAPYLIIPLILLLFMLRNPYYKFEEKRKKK

[4] = molecular target: T4, Sigma non-opioid intracellular receptor 1 (Cavia porcellus, UniProt Q60492); test: Displacement of [3H]pentazocine from sigma 1 receptor expressed in guinea pig brain membranes assessed as inhibition constant by radioligand binding assay; assay type: cell membranes, Membrane
[5] = Anti-proliferative against human U-87 MG cells assessed as reduction in cell viability incubated for 72 hrs by MTT assay; assay type: functional, cell-based, U-87MG ATCC
[6] = Anti-proliferative against human U-87 MG cells assessed as reduction in cell viability incubated for 24 hrs by MTT assay; assay type: functional, cell-based, U-87MG ATCC
[7] = Anti-proliferative against human U-87 MG cells assessed as reduction in cell viability incubated for 48 hrs by MTT assay; assay type: functional, cell-based, U-87MG ATCC
MDCK-MDR1 [8] = test: Anticancer against dog MDCK-MDR1 cells assessed as reduction in cell viability at 50 uM incubated for 48 hrs by MTT assay; assay type: functional, Canis lupus familiaris
MDCK-MDR1 [9] = test: Anticancer against dog MDCK-MDR1 cells assessed as reduction in cell viability at 50 uM incubated for 48 hrs in presence of doxorubicin by MTT assay; assay type: functional, Canis lupus familiaris
[10] = molecular target: ATP-dependent translocase ABCB1 (Homo sapiens, UniProt P08183); test: Inhibition of P-gp transporter (unknown origin) expressed in dog MDCK-MDR1 assessed as inhibition of fluorescent Calcein-AM transport by fluorescence based assay; assay type: cell-based
MDCK-MDR1 [11] = test: Anticancer against dog MDCK-MDR1 cells assessed as reduction in cell viability at 30 uM incubated for 48 hrs in presence of doxorubicin by MTT assay; assay type: functional, Canis lupus familiaris
SK-N-SH = test: Antiproliferative activity against human SK-N-SH cells assessed as reduction in cell viability incubated for 48 hrs by MTT assay; assay type: functional, cell-based
PC-3 = test: Antiproliferative activity against human PC-3 cells assessed as reduction in cell viability incubated for 48 hrs by MTT assay; assay type: functional, cell-based; details: PC-3, 48 h
MCF7 [12] = test: Antiproliferative activity against human MCF7 cells assessed as reduction in cell viability; assay type: functional, cell-based
[13] = molecular target: T4, Sigma non-opioid intracellular receptor 1; test: Binding affinity to sigma 1 receptor expressed in guinea pig brain; assay type: tissue-based
A-427 = test: Antiproliferative activity against human A-427 cells assessed as reduction in cell viability; assay type: functional, cell-based
5637 = test: Antiproliferative activity against human 5637 cells assessed as reduction in cell viability; assay type: functional, cell-based
RPMI-8226 [14] = test: Antiproliferative activity against human RPMI-8226 cells assessed as reduction in cell viability; assay type: functional, cell-based
[15] = molecular target: T1, Sigma non-opioid intracellular receptor 1; test: Binding affinity to sigma 1 receptor (unknown origin) expressed in human RPMI-8226 cells; assay type: cell-based
[16] = molecular target: T2, Sigma intracellular receptor 2; test: Binding affinity to sigma 2 receptor (unknown origin) expressed in human RT-4 cells; assay type: cell-based
[17] = molecular target: T3, Sigma intracellular receptor 2; test: Binding affinity to sigma 2 receptor expressed in rat liver; assay type: tissue-based
RPMI-8226 [18] = test: Anti-proliferative against human RPMI-8226 cells assessed as reduction in cell viability at 40 uM incubated for 24 hrs by MTT assay; assay type: functional
[19] = Anti-proliferative against human U-87 MG cells assessed as reduction in cell viability at 40 uM incubated for 24 hrs by MTT assay; assay type: functional, U-87MG ATCC
[20] = molecular target: T3, Sigma intracellular receptor 2; test: Displacement of [3H]DTG from sigma 2 receptor expressed in rat liver membranes assessed as inhibition constant incubated for 120 mins in presence of (+)-SKF10047 by radioligand binding assay; assay type: cell membranes, Membrane
[21] = molecular target: T4, Sigma non-opioid intracellular receptor 1; test: Displacement of [3H]pentazocine from sigma 1 receptor expressed in guinea pig brain membranes assessed as inhibition constant incubated for 150 mins by radioligand binding assay; assay type: cell membranes, Membrane
SK-MEL-28 [22] = test: Anti-proliferative against human SK-MEL-28 cells assessed as reduction in cell viability incubated for 48 hrs by MTT assay; assay type: functional, cell-based; details: SK-MEL-28, 48 h
SK-MEL-28 [23] = test: Anti-proliferative against human SK-MEL-28 cells assessed as reduction in cell viability incubated for 24 hrs by MTT assay; assay type: functional, cell-based; details: SK-MEL-28, 24 h
RPMI-8226 [24] = test: Induction of apoptosis in human RPMI-8226 cells assessed as total apoptotic cells incubated for 48 hrs by annexin-V/propidium iodide staining based flow cytometry; assay type: functional
MCF7 [25] = test: Antiproliferative activity against human MCF7 cells assessed as reduction in cell proliferation at 100 uM incubated for 48 hrs by MTT assay; assay type: functional; set-up: scale not given: the % may be the effect or the level left
[26] = molecular target: T1, Sigma non-opioid intracellular receptor 1; test: Binding affinity to sigma 1 receptor (unknown origin)
D(2) dopamine receptor = D(2) dopamine receptor (Homo sapiens, UniProt P14416); test: Binding affinity to D2R receptor (unknown origin)
[27] = molecular target: T5, 5-hydroxytryptamine receptor 1A (Homo sapiens, UniProt P08908); test: Binding affinity to 5-HT1A receptor (unknown origin) by […]
T5 sequence (P08908 whole entry): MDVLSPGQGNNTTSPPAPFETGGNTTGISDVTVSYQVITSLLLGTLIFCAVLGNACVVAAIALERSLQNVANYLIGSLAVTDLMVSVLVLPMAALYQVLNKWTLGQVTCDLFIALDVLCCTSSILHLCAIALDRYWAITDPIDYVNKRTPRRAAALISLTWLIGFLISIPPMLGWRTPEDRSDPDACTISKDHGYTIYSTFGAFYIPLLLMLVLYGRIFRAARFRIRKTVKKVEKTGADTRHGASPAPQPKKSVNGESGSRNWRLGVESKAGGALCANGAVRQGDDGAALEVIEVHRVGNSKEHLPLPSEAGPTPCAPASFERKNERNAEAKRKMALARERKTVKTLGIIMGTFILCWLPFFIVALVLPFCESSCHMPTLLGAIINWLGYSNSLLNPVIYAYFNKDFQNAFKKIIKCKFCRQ

T1 sequence (Q99720 whole entry): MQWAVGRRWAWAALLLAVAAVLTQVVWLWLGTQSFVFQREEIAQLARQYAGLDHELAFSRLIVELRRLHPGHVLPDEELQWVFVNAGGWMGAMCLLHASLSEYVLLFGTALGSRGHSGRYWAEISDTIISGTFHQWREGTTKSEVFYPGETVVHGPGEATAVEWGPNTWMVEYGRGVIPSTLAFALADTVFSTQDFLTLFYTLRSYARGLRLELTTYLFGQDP
T4 sequence (Q60492 whole entry): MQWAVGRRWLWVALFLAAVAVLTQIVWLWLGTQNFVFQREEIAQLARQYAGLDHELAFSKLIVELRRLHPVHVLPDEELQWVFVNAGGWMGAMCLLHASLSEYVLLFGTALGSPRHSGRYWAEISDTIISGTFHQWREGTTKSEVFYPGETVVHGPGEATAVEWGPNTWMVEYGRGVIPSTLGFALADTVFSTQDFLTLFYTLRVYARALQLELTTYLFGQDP
T2 sequence (Q5BJF2 whole entry): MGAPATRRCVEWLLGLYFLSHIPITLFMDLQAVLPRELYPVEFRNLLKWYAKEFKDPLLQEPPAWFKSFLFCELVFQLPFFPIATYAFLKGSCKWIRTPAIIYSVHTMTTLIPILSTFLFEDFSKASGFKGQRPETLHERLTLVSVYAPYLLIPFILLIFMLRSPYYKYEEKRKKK
Chain of D(2) dopamine receptor (P14416 whole entry): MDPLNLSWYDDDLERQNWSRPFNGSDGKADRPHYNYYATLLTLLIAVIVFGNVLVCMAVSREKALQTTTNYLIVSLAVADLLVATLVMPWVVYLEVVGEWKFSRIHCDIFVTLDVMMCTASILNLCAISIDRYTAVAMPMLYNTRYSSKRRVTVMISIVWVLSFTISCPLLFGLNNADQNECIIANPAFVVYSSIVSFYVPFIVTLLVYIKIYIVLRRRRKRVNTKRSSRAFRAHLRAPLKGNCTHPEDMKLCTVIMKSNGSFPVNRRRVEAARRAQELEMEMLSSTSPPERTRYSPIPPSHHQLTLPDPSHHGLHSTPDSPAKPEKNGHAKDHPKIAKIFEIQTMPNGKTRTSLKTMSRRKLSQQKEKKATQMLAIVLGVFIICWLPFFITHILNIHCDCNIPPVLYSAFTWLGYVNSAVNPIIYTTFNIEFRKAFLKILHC
Chain of ATP-dependent translocase ABCB1 (P08183 whole entry): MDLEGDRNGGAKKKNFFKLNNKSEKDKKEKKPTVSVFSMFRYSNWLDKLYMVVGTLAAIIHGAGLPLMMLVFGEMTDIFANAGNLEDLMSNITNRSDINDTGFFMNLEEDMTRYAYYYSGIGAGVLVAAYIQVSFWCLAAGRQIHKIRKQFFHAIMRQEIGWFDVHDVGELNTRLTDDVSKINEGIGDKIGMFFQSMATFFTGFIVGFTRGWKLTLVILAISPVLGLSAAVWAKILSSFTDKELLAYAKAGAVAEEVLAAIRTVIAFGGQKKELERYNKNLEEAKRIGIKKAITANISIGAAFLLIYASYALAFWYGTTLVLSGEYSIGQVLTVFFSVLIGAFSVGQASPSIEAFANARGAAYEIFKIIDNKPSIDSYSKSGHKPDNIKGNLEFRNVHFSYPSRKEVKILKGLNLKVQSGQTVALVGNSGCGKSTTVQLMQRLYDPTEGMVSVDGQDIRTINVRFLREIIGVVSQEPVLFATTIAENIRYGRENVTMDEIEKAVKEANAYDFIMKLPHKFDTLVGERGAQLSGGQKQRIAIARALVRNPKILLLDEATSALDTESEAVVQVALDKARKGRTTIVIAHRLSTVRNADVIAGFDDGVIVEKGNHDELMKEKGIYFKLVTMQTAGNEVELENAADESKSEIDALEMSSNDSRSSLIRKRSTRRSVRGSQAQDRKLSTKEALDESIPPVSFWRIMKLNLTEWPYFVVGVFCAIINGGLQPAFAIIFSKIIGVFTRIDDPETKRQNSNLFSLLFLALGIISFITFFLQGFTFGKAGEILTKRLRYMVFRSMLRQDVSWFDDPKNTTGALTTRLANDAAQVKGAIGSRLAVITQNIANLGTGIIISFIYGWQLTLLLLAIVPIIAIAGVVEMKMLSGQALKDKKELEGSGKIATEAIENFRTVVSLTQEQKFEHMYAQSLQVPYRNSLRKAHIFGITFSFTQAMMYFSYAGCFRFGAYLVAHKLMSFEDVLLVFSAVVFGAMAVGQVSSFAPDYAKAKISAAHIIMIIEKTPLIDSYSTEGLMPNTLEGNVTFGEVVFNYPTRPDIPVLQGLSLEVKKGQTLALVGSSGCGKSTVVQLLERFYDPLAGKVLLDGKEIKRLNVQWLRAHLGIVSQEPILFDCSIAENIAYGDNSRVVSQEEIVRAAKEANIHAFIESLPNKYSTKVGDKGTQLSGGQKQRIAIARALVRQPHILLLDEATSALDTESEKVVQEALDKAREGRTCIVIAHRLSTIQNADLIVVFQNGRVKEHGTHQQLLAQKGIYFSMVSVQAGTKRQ

CN1C(=O)CCc2cc(CNC(C)(C)[C@@H](O)c3ccccc3)ccc21
Ki [1]: > 1 µM | Ki [2]: 0.004 µM

C1=C(c2c[nH]c3ncccc23)CCN(CCCc2ccccc2)C1
Ki [1]: 0.029 µM

CCCCCCNCC[C@H]1CCC[C@@H](c2ccccc2)O1
Ki [3]: 0.036 µM | Ki [4]: 0.0024 µM

C/C(=C\CN1CCN(Cc2ccc(C(F)(F)F)cc2)CC1)c1ccccc1
IC50 [5]: 19 µM | IC50 ([6]; Homo sapiens, U-87 MG, 24 h): 28.3 µM | IC50 ([6]; u-87mg atcc): 22.3 µM | IC50 [7]: 22.3 µM

C/C(=C\CN1CCN(C(=O)C2CCCC2)CC1)c1ccccc1
IC50 [5]: 11.2 µM | IC50 ([6]; Homo sapiens, U-87 MG, 24 h): 39.1 µM | IC50 [7]: 39.1 µM

COc1cccc(OC)c1[C@H]1CC[C@@H](N2CCN(C3CCCCC3)CC2)CC1
Ki [3]: 0.00792 µM | Activity (MDCK-MDR1 [8]): 50% | Activity (MDCK-MDR1 [9]): 90% | EC50 [10]: 0.8 µM | Activity (MDCK-MDR1 [11]): 70% | Ki [4]: 0.00026 µM | EC50 (SK-N-SH): 32.5 µM | EC50 (PC-3): 31.3 µM

CCCCCCNCC[C@@H]1CCC[C@H](c2ccccc2)O1
Ki [3]: 0.057 µM | Ki [4]: 0.00095 µM

CCN1CCN(Cc2cccc3ccccc23)[C@@H](CCO)C1
IC50 (MCF7 [12]): 9.77 µM | Ki [13]: 0.0019 µM | IC50 (A-427): 9.12 µM | IC50 5637: 3.65 µM | IC50 (RPMI-8226 [14]): 1.29 µM | Ki [15]: 0.029 µM | Ki [16]: 0.016 µM | Ki [17]: 0.026 µM

C/C(=C\CN1CCN(Cc2ccccc2)CC1)c1ccc2ccccc2c1
Activity (RPMI-8226 [18]): 65% | Activity [19]: 34%

c1ccc(CN2CCN(CC3CSC4(CCCCC4)S3)CC2)cc1 (stereo not drawn)
Ki [20]: 0.0759 µM | Ki [21]: 0.00616 µM | IC50 (SK-MEL-28 [22]): 38 µM | IC50 (SK-MEL-28 [23]): 50 µM

COc1ccc(/C(C)=C/CN2CCN(Cc3ccc(C(F)(F)F)cc3)CC2)cc1
IC50 [5]: 20.6 µM | IC50 ([6]; Homo sapiens, U-87 MG, 24 h): 27.6 µM | IC50 ([6]; u-87mg atcc): 24.1 µM | IC50 [7]: 24.1 µM

CCN1CCN(Cc2cccc3ccccc23)[C@H](CCO)C1
IC50 (MCF7 [12]): 9.05 µM | Ki [13]: 0.0009 µM | IC50 (A-427): 5.02 µM | IC50 5637: 4.79 µM | IC50 (RPMI-8226 [14]): 8.53 µM | Ki [15]: 0.0075 µM | Activity (RPMI-8226 [24]): 32% | Ki [16]: 0.037 µM | Ki [17]: 0.014 µM

OC(CCCN1CCC(O)(c2ccc(Cl)cc2)CC1)c1ccc(F)cc1 (racemic) [HYDROXYHALOPERIDOL]
Activity (MCF7 [25]): 98%

CCCN1CCC(c2cccc(S(C)(=O)=O)c2)CC1 [PRIDOPIDINE]
Ki [26]: 0.017 µM | Ki (D(2) dopamine receptor): 10 µM

O=C(CN1CCC(CN2Cc3ccccc3C2=O)CC1)c1ccc(F)cc1 [ROLUPERIDONE]
Ki [27]: 0.00753 µM
